# Test results published in patent US20060270631A1, “Methods for the treatment and prevention of angiogenic diseases” (priority 2005, published 2006).
# How the values were obtained:
# endogenous SK [1] = assay: Cellular SK activity in bovine retinal endothelial cells; type: cell-based; conditions: 25 μg/mL (approximately 80 μM), 4 hours
# Description: FIG. 3. Inhibition of cellular SK activity in RECs. Bovine retinal endothelial cells were incubated with 20 μM dimethylsphingosine (DMS) or 25 μg/mL Compound I, Compound II or Compound V (approximately 80 μM for each compound) for 4 hours before the addition of 0.4 μCi of [^3H]sphingosine. After 15 minutes, cells were lysed and extracted with chloroform: methanol. The total amounts of [^3H]sphingosine in the organic phase and [^3H]S1P in the aqueous phase were then determined. Values represent the mean±SD of duplicate samples in a typical experiment.
# (§1) Cellular S1P formation assay. Cells were grown to confluency in 24-well tissue culture plates and serum-starved for 24 hours as described above. Cells were then treated with 1% DMSO (as the drug vehicle), 20 μM dimethylsphingosine, or the indicated concentration of an SK inhibitor for 4 hours. The cells were then incubated with [^3H]sphingosine for 15 minutes, and the formation of [^3H]S1P was measured as previously described (French et al., Cancer Res 63: 5962 (2003)). In some assays, the cells were serum-starved for 24 hours and then treated with VEGF (50 ng/mL) alone or in the presence of an SK inhibitor for an additional 12 hours. [^3 H]Sphingosine was then added for 15 minutes, and its conversion to [^3H]S1P was measured as indicated above.
# A cell-based assay in which the phosphorylation of exogenously added [^3H]sphingosine to [^3H]S1P by endogenous SK can be quantified (French et al., Cancer Res 63: 5962 (2003)) was used to evaluate the effects of test compounds on the activity of SK in intact cells. In this assay, cells are incubated with [^3 H]sphingosine for an appropriate period of time, and then [^3H]sphingosine and [^3H]S1P (formed by endogenous SK activity) are separated by extraction and levels of both species are determined by scintillation counting. We have used a number of cell lines in this assay to confirm that the SK inhibitors are active in multiple intact cell systems. For example, human umbilical vein endothelial cells (HUVECs) are commonly used as a model of human vasculature. […] Similarly, the enzymatic activity of SK in bovine RECs, and its sensitivity to SK inhibitors were assessed. […] Each of inhibitors of SK (Compound I, Compound II and Compound V) was also active against the endogenous SK activity in the bovine RECs.
# human RECs [2] = assay: VEGF-stimulated proliferation of human RECs ([3H]thymidine incorporation); type: cell-based; conditions: VEGF 50 ng/mL, 12 hours + 2 hours [3H]thymidine, serum-starved human RECs
# Description: FIG. 6. Effects of Compound II on VEGF-stimulated proliferation of RECs. Human RECs were serum-starved for 24 hours and then left untreated or incubated with VEGF (50 ng/mL) in the presence of the indicated concentration (in μM) of Compound II for 12 hours. [3H]Thymidine was then added and the cultures were incubated an additional 2 hours. The amount of [^3H]thymidine incorporated into DNA was determined. Values represent the mean±SD of duplicate samples in a typical experiment.
# Cell proliferation assay. Cells were grown to confluence in 24-well tissue culture plates and serum-starved overnight as described above. Cells were then treated with 50 ng/mL of VEGF and varying concentrations of Compound II for 12 hours. At that time, 16 μCi of [3H]thymidine was added to each well, and the cultures were incubated for an additional 2 hours. The media was then removed by aspiration, the cells were washed twice with cold PBS, and 0.8 mL of ice-cold 10% trichloroacetic acid was added to each well. […] The samples were incubated at 37° C. for 30 minutes, scraped into scintillation vials, and the amount of ^3H in the recovered genomic DNA was quantified by scintillation counting.
# We next evaluated the effects of VEGF on the proliferation of human RECs by measuring the effects of the growth factor of the incorporation of [^3H]thymidine into the DNA of serum-starved cells. […]
# endogenous SK [3] = assay: VEGF-stimulated SK activity in bovine RECs; type: cell-based; conditions: VEGF 50 ng/mL, 12 hours, serum-starved bovine RECs
# Description: FIG. 5. Effects of Compound II on VEGF-stimulated SK activity in RECs. Bovine RECs were serum-starved for 24 hours and then left untreated or incubated with VEGF (50 ng/mL) in the presence of DMS (D) or the indicated concentration (in μM) of Compound II for 12 hours. [^3H]Sphingosine was then added to the cells and its conversion to [^3H]S1P was determined. Values represent the mean±SD of duplicate samples in a typical experiment.
# as §1
# The effects of VEGF on SK activity in bovine RECs using the same cell-based assay as above, except that serum was removed from the cultures 24 hours before the addition of the SK inhibitor and VEGF were tested. […]
# human RECs [4] = assay: Matrigel microvessel (tube) formation by human RECs; type: cell-based; conditions: control and VEGF-treated (50 ng/mL) cultures, 18 hours
# Description: Since VEGF-mediated angiogenesis and vascular leakage are critical processes in the pathology of diabetic retinopathy, we evaluated the effects of Compound II on the VEGF-induced formation of microvessels by human RECs. The basement membrane-like substrate, Matrigel (Becton-Dickinson, Franklin Lakes, N.J.), was used to induce vessel-like tube formation from human RECs as in previous studies with other cell types (Lee et al., Cancer Lett 208: 89 (2004)). Briefly, 300 μL of Matrigel was pipetted into 24 well plates and allowed to gel at 37° C. for 30 minutes. Human RECs were briefly trypsinized and plated onto the layer of Matrigel at an approximate density of 25,000 cells/cm^2. VEGF (50 ng/mL in PBS) with either DMSO or an SK inhibitor was added to the media immediately. After 18 hours at 37° C., images were digitally captured with a Retiga Ex camera with bright-field microscopy using a Nikon Eclipse TE300 microscope.
# [5] = system: VEGF-induced vascular permeability; assay: VEGF-induced vascular leakage (Miles assay) in nude mice; type: in vivo, mouse; conditions: 100 mg/kg intraperitoneal, FIG. 7A
compound,measurement,setting,value
Oc1ccc(Nc2nc(-c3ccc(Cl)cc3)cs2)cc1 [Compound II],endogenous SK activity in bovine RECs,endogenous SK [1],active
same,concentration blocking the mitogenic response to VEGF,human RECs [2],≥ 1.3 µM
same,concentration completely inhibiting the SK activity response to VEGF,endogenous SK [3],≥ 1.3 µM
same,formation of networks and tubes,human RECs [4],marked reduction
same,inhibition of the in vivo vascular leakage response to VEGF,[5],more than 80%
